Test system: gene expression in Col-0 seedling shoots
Test: Microarray analysis (ATH1 Affymetrix) after BL or abrasin treatment
Type: in vivo, Arabidopsis
Conditions: 30 min
Protocol: FIG. 14: Clustering of gene expression profiles by QT-clust analysis. Clusters illustrating the major patterns of the data sets. Points: BIK-30: 30 μM abrasin 30 min; BL-30: 1 μM brassinolide 30 min; DMSO-30: control DMSO 30 min; BIK-120: 30 μM abrasin 120 min; BL-120: 1 μM brassinolide 120 min; DMSO-120: control DMSO 120 min.
Col-0 seeds were germinated vertically on ½ MS medium for 7 days under 16 h light/8 h dark cycles. The seedlings were overlaid with liquid ½ MS medium containing 1 μM brassinolide (BL, Fuji Chemical Industries, Ltd., Toyama, Japan), 30 μM abrasin (BIK, ChemBridge Corporation) and DMSO and treated for 30 and 120 min. The shoot parts were collected for RNA isolation. All sampling points were performed in three independent experiments. RNA was extracted using RNeasy kit (Qiagene). […] total RNA per array was used to hybridise the ATH1 Affymetrix Arabidopsis arrays according to standard procedure. The overrepresentation analyses were performed using BiNGO software (Maere et al., 2005).
We performed a microarray analysis using the Arabidopsis whole genome chip (Affymetix) to determine whether abrasin activated the expression of BR-inducible genes at transcriptional level. Wild-type Col-0 seedlings were exposed to 1 μM BL, 30 μM ABRASIN and DMSO (mock-treatment) for two time points (30 min and 120 min) and the shoot parts were collected for RNA isolation. The analysis of the variance of the normalized gene expression data took in account the variability parameters affecting the expression level: type of hormone treatment, duration of treatment and the interaction between these two.

O=C(O)CCC(=O)Nc1ccc(Br)cn1 [abrasin, 4-[(5-bromo-2-pyridinyl)amino]-4-oxobutanoic acid]
Fold-change AT4G16563 aspartyl protease family protein: 1.16 | Fold-change AT4G16670 expressed protein: 0.79 | Fold-change AT4G16780 homeobox-leucine zipper protein 4 (HAT4)/HD-ZIP protein: 0.54 | Fold-change AT4G17250 expressed protein: 1.20 | Fold-change AT4G17460 homeobox-leucine zipper protein 1 (HAT1)/HD-ZIP protein 1: 0.29 | Fold-change AT4G21510 F-box family protein: 1.03 | Fold-change AT4G23030 MATE efflux protein-related: 1.60 | Fold-change AT4G23070 rhomboid family protein: 2.00 | Fold-change AT4G23810 WRKY family transcription factor: 5.76 | Fold-change AT4G24160 hydrolase, alpha/beta fold family protein: 1.42 | Fold-change AT4G25620 hydroxyproline-rich glycoprotein family protein: 0.51 | Fold-change AT4G25780 pathogenesis-related protein: 0.12 | Fold-change AT4G27970 C4-dicarboxylate transporter/malic acid transport family protein: 2.43 | Fold-change AT4G28240 wound-responsive protein-related: 0.49 | Fold-change AT4G28490 leucine-rich repeat transmembrane protein kinase, putative: 1.20 | Fold-change AT4G28703 expressed protein: 1.95 | Fold-change AT4G28780 GDSL-motif lipase/hydrolase family protein: 1.00 | Fold-change AT4G29070 expressed protein: 0.78 | Fold-change AT4G30080 transcriptional factor B3 family protein: 0.89 | Fold-change AT4G31020 expressed protein: 2.67 | Fold-change AT4G32280 auxin-responsive AUX/IAA family protein (IAA29): 0.32 | Fold-change AT4G33050 calmodulin-binding family protein: 2.38 | Fold-change AT4G33700 CBS domain-containing protein: 0.73 | Fold-change AT4G34610 homeodomain-containing protein: 1.02 | Fold-change AT4G36110 auxin-responsive protein: 1.16 | Fold-change AT4G36780 brassinosteroid signalling positive regulator-related: 0.49 | Fold-change AT4G37240 expressed protein: 0.79 | Fold-change AT4G37290 expressed protein: 0.95 | Fold-change AT4G37590 phototropic-responsive NPH3 family protein: 1.04 | Fold-change AT4G38840 auxin-responsive protein (SAUR14): 1.01 | Fold-change AT4G38850 auxin-responsive protein (SAUR-AC1): 1.00 | Fold-change AT4G38860 auxin-responsive protein (SAUR16): 0.79 | Fold-change AT4G39400 brassinosteroid insensitive 1 (BRI1): 0.71 | Fold-change AT5G02020 expressed protein: 1.01 | Fold-change AT5G05690 cytochrome P450 90A1 (CYP90A1) (CYP90) (CPD): 0.63 | Fold-change AT5G07690 myb family transcription factor (MYB29): 0.58 | Fold-change AT5G08130 basic helix-loop-helix (bHLH) family protein (BIM2): 0.76 | Fold-change AT5G12050 expressed protein: 0.52 | Fold-change AT5G13180 no apical meristem (NAM) family protein: 0.77 | Fold-change AT5G13740 sugar transporter family protein: 0.81 | Fold-change AT5G14730 expressed protein: 0.38 | Fold-change AT5G16200 50S ribosomal protein-related: 0.37 | Fold-change AT5G16980 NADP-dependent oxidoreductase: 1.11 | Fold-change AT5G18750 DNAJ heat shock N-terminal domain-containing protein: 1.91 | Fold-change AT5G19200 short-chain dehydrogenase/reductase (SDR) family protein: 1.00 | Fold-change AT5G19340 expressed protein: 0.83 | Fold-change AT5G24030 C4-dicarboxylate transporter/malic acid transport family protein: 2.35 | Fold-change AT5G24660 expressed protein: 2.43 | Fold-change AT5G25240 expressed protein: 0.74 | Fold-change AT5G25930 leucine-rich repeat family protein: 2.65 | Fold-change AT5G27350 sugar-porter family protein 1 (SFP1): 1.07 | Fold-change AT5G27670 histone H2A: 0.79 | Fold-change AT5G38310 expressed protein: 1.00 | Fold-change AT5G38990; AT5G39000 [AT5G38990, protein kinase family protein: 1.40 | Fold-change AT5G39050 transferase family protein: 1.49 | Fold-change AT5G39610 no apical meristem (NAM) family protein: 0.72 | Fold-change AT5G39970 expressed protein: 1.42 | Fold-change AT5G42830 transferase family protein: 1.03 | Fold-change AT5G47370 homeobox-leucine zipper protein 2 (HAT2): 0.51 | Fold-change AT5G48070 putative xyloglucan endotransglycosylase/hydrolase: 1.48 | Fold-change AT5G48540 33 kDa secretory protein-related: 2.45 | Fold-change AT5G51550 phosphate-responsive 1 family protein: 1.02 | Fold-change AT5G54490 calcium-binding EF-hand protein, putative: 0.73 | Fold-change AT5G54860 integral membrane transporter family protein: 1.69 | Fold-change AT5G55970 zinc finger (C3HC4-type RING finger) family protein: 0.96 | Fold-change AT5G56980 expressed protein: 0.43 | Fold-change AT5G57190 phosphatidylserine decarboxylase: 1.32 | Fold-change AT5G57780 expressed protein: 0.35 | Fold-change AT5G59080 expressed protein: 0.46 | Fold-change AT5G60200 Dof-type zinc finger domain-containing protein: 1.36 | Fold-change AT5G60270 lectin protein kinase family protein: 0.96 | Fold-change AT5G60630 expressed protein: 0.99 | Fold-change AT5G61600 encodes a member of the ERF (ethylene response factor): 0.53 | Fold-change AT5G62360 invertase/pectin methylesterase inhibitor family protein: 0.52 | Fold-change AT5G65310 homeobox-leucine zipper protein 5 (HB-5)/HD-ZIP transcription factor 5: 0.90 | Fold-change AT5G66420 expressed protein: 0.92 | Fold-change AT5G66590 allergen V5/Tpx-1-related family protein: 0.53 | Fold-change AT5G67450 zinc finger (C2H2 type) protein 1 (AZF1): 6.17 | Fold-change of gene AT4G16140 (proline-rich family protein) (245479_at, Cluster 6): 1.16 | Fold-change of gene AT4G15260 (UDP-glucoronosyl/UDP-glucosyl transferase family protein) (245543_at, Cluster 7): 1.41 | Fold-change of gene AT5G09440 (phosphate-responsive protein, putative) (245885_at, Cluster 5): 0.38 | Fold-change of gene AT1G77380 (amino acid carrier) (246389_at, Cluster 10): 1.32 | Fold-change of gene AT5G15740 (expressed protein) (246516_at, Cluster 5): 0.78 | Fold-change of gene AT5G65300 (expressed protein) (247177_at, Cluster 5): 0.31 | Fold-change of gene AT5G64890 (expressed protein) (247205_at, Cluster 10): 1.01 | Fold-change of gene AT5G63790 (no apical meristem (NAM) family protein) (247351_at, Cluster 9): 0.88 | Fold-change of gene AT5G62630 (expressed protein) (247444_at, Cluster 7): 1.62 | Fold-change of gene AT5G60850 (Dof-type zinc finger domain-containing protein) (247601_at, Cluster 10): 0.51 | Fold-change of gene AT5G59510 (expressed protein) (247704_at, Cluster 9): 1.00 | Fold-change of gene AT5G58660 (oxidoreductase. 2OG-Fe(II) oxygenase family protein) (247774_at, Cluster 5): 1.15 | Fold-change of gene AT5G54120 (expressed protein) (248190_at, Cluster 5): 0.82 | Fold-change of gene AT5G54130 (calcium-binding EF hand family protein) (248191_at, Cluster 5): 0.84 | Fold-change of gene AT5G52900 (expressed protein) (248282_at, Cluster 6): 1.70 | Fold-change of gene AT5G49100 (expressed protein) (248646_at, Cluster 9): 0.72 | Fold-change of gene AT5G18060 (auxin-responsive protein) (250012_x_at, Cluster 6): 1.00 | Fold-change of gene AT5G09800 (U-box domain-containing protein) (250493_at, Cluster 9): 1.04 | Fold-change of gene AT5G08565 (expressed protein) (250537_at, Cluster 8): 0.87 | Fold-change of gene AT5G03670 (expressed protein) (250907_at, Cluster 5): 0.61 | Fold-change of gene AT5G01740 (expressed protein) (251072_at, Cluster 5): 0.33 | Fold-change of gene AT3G63380 (calcium-transporting ATPase) (251176_at, Cluster 10): 0.85 | Fold-change of gene AT3G60690 (auxin-responsive family protein) (251342_at, Cluster 9): 0.91 | Fold-change of gene AT3G45610 (Dof-type zinc finger domain) (252586_at, Cluster 10): 0.94 | Fold-change of gene AT3G44610 (protein kinase family protein) (252646_at, Cluster 5): 0.83 | Fold-change of gene AT4G34760 (auxin-responsive family protein) (253255_at, Cluster 6): 1.80 | Fold-change of gene AT4G34138 (UDP-glucoronosyl/UDP-glucosyl transferase family protein) (253281_at, Cluster 7): 1.52 | Fold-change of gene AT4G31910 (transferase family protein) (253483_at, Cluster 5): 1.46 | Fold-change of gene AT4G30410 (expressed protein) (253617_at, Cluster 5): 0.94 | Fold-change of gene AT4G30450 (glycine-rich protein) (253629_at, Cluster 5): 0.84 | Fold-change of gene AT4G26200 (1-aminocyclopropane-1-carboxylate synthase) (253999_at, Cluster 9): 1.11 | Fold-change of gene AT4G03400 (auxin-responsive GH3 family protein) (255403_at, Cluster 6): 0.81 | Fold-change of gene AT4G02700 (sulfate transporter) (255443_at, Cluster 7): 1.76 | Fold-change of gene AT1G22190 (AP2 domain-containing transcription factor) (255926_at, Cluster 8): 0.45 | Fold-change of gene AT1G66140 (zinc finger (C2H2 type) family protein) (256528_at, Cluster 6): 0.87 | Fold-change of gene AT3G25655 (expressed protein) (256762_at, Cluster 8): 1.00 | Fold-change of gene AT3G21420 (oxidoreductase, 2OG-Fe(II) oxygenase family protein) (256818_at, Cluster 7): 1.13 | Fold-change of gene AT3G18280 (protease inhibitor/seed storage/lipid transfer protein) (257066_at, Cluster 5): 1.03 | Fold-change of gene AT1G29440 (auxin-responsive family protein) (257506_at, Cluster 6): 0.96 | Fold-change of gene AT3G29200 (chorismate mutase, chloroplast (CM1)) (257746_at, Cluster 5): 0.83 | Fold-change of gene AT1G13260 (DNA-binding protein RAV1 (RAV1)) (259364_at, Cluster 8): 0.32 | Fold-change of gene AT1G29500 (auxin-responsive protein) (259773_at, Cluster 6): 1.01 | Fold-change of gene AT1G29510 (auxin-responsive protein) (259783_at, Cluster 6): 1.02 | Fold-change of gene AT1G29450 (auxin-responsive protein) (259784_at, Cluster 6): 0.99 | Fold-change of gene AT1G29460 (auxin-responsive protein) (259787_at, Cluster 6): 1.23 | Fold-change of gene AT1G76690; AT1G76680 ([AT1G76690, 12-oxophytodienoate reductase (OPR2)) (259875_s_at, Cluster 7): 1.95 | Fold-change of gene AT1G76620 (expressed protein) (259985_at, Cluster 8): 0.90 | Fold-change of gene AT1G63720 (expressed protein) (260243_at, Cluster 10): 0.92 | Fold-change of gene AT1G48100 (glycoside hydrolase family 28 protein) (260727_at, Cluster 8): 0.92 | Fold-change of gene AT1G12200 (flavin-containing monooxygenase family protein) (261023_at, Cluster 7): 1.44 | Fold-change of gene AT1G12845 (expressed protein) (261203_at, Cluster 6): 1.66 | Fold-change of gene AT1G15550 (gibberellin 3-beta-dioxygenase) (261768_at, Cluster 6): 1.12 | Fold-change of gene AT1G80840 (WRKY family transcription factor) (261892_at, Cluster 9): 0.43 | Fold-change of gene AT1G80080 (leucine-rich repeat family protein) (262040_at, Cluster 6): 1.56 | Fold-change of gene AT1G80130 (expressed protein) (262050_at, Cluster 8): 0.90 | Fold-change of gene AT1G21680 (expressed protein) (262505_at, Cluster 10): 0.82 | Fold-change of gene AT1G34245 (expressed protein) (262543_at, Cluster 6): 1.69 | Fold-change of gene AT1G78460 (SOUL heme-binding family protein) (263126_at, Cluster 7): 1.01 | Fold-change of gene AT1G78820; AT1G78830 ([AT1G78820, curculin-like (mannose-binding) lectin family protein) (264279_s_at, Cluster 7): 1.27

Source: patent US8273775B2, “Non-steroidal brassinosteroid mimetic” (priority 2006, dated 2012)
